Patent US20220054513A1, “COMBINATION COMPOSITIONS COMPRISING A BETA-LACTAMASE INHIBITOR” (VenatoRx Pharmaceuticals, Inc., priority 2018, published 2022)
Like-named read-outs stand apart in the source and are kept apart here.

Key:
[1] = test system: Acinetobacter baumannii-calcoaceticus species complex clinical isolates; test: MIC of triple combinations (Compound 1, sulbactam, meropenem or cefepime), 141 clinical isolates; format: cell-based; details: Cmpd 1 at 4 μg/mL in combinations
Description: For a more comprehensive assessment of the ability of test compounds to potentiate sulbactam in triple combinations with β-lactams additional MIC assays were utilized.

[2] = test system: multi-drug resistant Acinetobacter baumannii; test: broth microdilution MIC of sulbactam, ampicillin, cefepime and combinations +/- Compound 1, panel of 51 Acinetobacter isolates

CC1(C)[C@H](C(=O)O)N2C(=O)C[C@H]2S1(=O)=O [SUL, Sulbactam]
MIC ([1]; Acinetobacter, strain 1035788): 32 µg/mL | MIC ([1]; Acinetobacter, strain 1035794): 64 µg/mL | MIC ([1]; Acinetobacter, strain 1035808): 32 µg/mL | MIC ([1]; Acinetobacter, strain 1035825): 32 µg/mL | MIC ([1]; Acinetobacter, strain 1035900): 32 µg/mL | MIC ([1]; Acinetobacter, strain 1036023): 64 µg/mL | MIC ([1]; Acinetobacter, strain 1036045): 32 µg/mL | MIC ([1]; Acinetobacter, strain 1036068): 32 µg/mL | MIC ([1]; Acinetobacter, strain 1036734): 32 µg/mL | MIC ([1]; Acinetobacter, strain 1036768): 32 µg/mL | MIC ([1]; Acinetobacter, strain 1036781): 32 µg/mL | MIC ([1]; Acinetobacter, strain 1036859): 32 µg/mL | MIC ([1]; Acinetobacter, strain 1036882): 32 µg/mL | MIC ([1]; Acinetobacter, strain 1036921): 64 µg/mL | MIC ([1]; Acinetobacter, strain 1037193): 16 µg/mL | MIC ([1]; Acinetobacter, strain 1037211): 64 µg/mL | MIC ([1]; Acinetobacter, strain 1037251): 32 µg/mL | MIC ([1]; Acinetobacter, strain 1037256): 16 µg/mL | MIC ([1]; Acinetobacter, strain 1037294): 64 µg/mL | MIC ([1]; Acinetobacter, strain 1037462): 16 µg/mL | MIC ([1]; Acinetobacter, strain 1037593): 32 µg/mL | MIC ([1]; Acinetobacter, strain 1037618): 64 µg/mL | MIC ([1]; Acinetobacter, strain 1037714): 8 µg/mL | MIC ([1]; Acinetobacter, strain 1037731): 16 µg/mL | MIC ([1]; Acinetobacter, strain 1037732): 16 µg/mL | MIC ([1]; Acinetobacter, strain 1037738): 16 µg/mL | MIC ([1]; Acinetobacter, strain 1037747): 32 µg/mL | MIC ([1]; Acinetobacter, strain 1038418): 16 µg/mL | MIC ([1]; Acinetobacter, strain 1038439): 16 µg/mL | MIC ([1]; Acinetobacter, strain 1039502): 64 µg/mL | MIC ([1]; Acinetobacter, strain 1039514): 16 µg/mL | MIC ([1]; Acinetobacter, strain 1039515): 32 µg/mL | MIC ([1]; Acinetobacter, strain 1039518): 16 µg/mL | MIC ([1]; Acinetobacter, strain 1040900): 8 µg/mL | MIC ([1]; Acinetobacter, strain 1040901): 64 µg/mL | MIC ([1]; Acinetobacter, strain 1040916): 32 µg/mL | MIC ([1]; Acinetobacter, strain 1042182): 16 µg/mL | MIC ([1]; strain 1002960): 128 µg/mL | MIC ([1]; strain 1010331): 128 µg/mL | MIC ([1]; strain 1010950): 128 µg/mL | MIC ([1]; strain 1019086): 128 µg/mL | MIC ([1]; strain 1023031): 128 µg/mL | MIC ([1]; strain 1037479): 128 µg/mL | MIC ([1]; strain 1040917): 128 µg/mL | MIC50 [2]: 16 µg/mL | MIC90 [2]: 64 µg/mL | MIC ([2]; read-out: Minimum inhibitory concentration (MIC), strain 0273 (ADC-25, OXA-23, OXA-66)): 32 µg/mL | MIC ([2]; read-out: Minimum inhibitory concentration (MIC), strain 0274 (TEM-1D, ADC-25, OXA-66, OXA-72)): 64 µg/mL | MIC ([2]; read-out: Minimum inhibitory concentration (MIC), strain 0275 (TEM-1D, ADC-25, OXA-23, OXA-66)): 64 µg/mL | MIC ([2]; read-out: Minimum inhibitory concentration (MIC), strain 0276 (enzyme content ND)): 8 µg/mL | MIC ([2]; read-out: Minimum inhibitory concentration (MIC), strain 0277 (TEM-1B, OXA-65, OXA-24)): 32 µg/mL | MIC ([2]; read-out: Minimum inhibitory concentration (MIC), strain 0278 (TEM-1D, ADC-25, OXA-23, OXA-66)): 32 µg/mL | MIC ([2]; read-out: Minimum inhibitory concentration (MIC), strain 0279 (TEM-1D, ADC-25, OXA-23, OXA-66)): 32 µg/mL | MIC ([2]; read-out: Minimum inhibitory concentration (MIC), strain 0280 (TEM-1D, ADC-25, OXA-66)): 128 µg/mL | MIC ([2]; read-out: Minimum inhibitory concentration (MIC), strain 0281 (TEM-1D, ADC-25, OXA-82)): 32 µg/mL | MIC ([2]; read-out: Minimum inhibitory concentration (MIC), strain 0282 (TEM-1D, ADC-25, OXA-23, OXA-66)): 32 µg/mL | MIC ([2]; read-out: Minimum inhibitory concentration (MIC), strain 0283 (TEM-1D, ADC-25, OXA-23, OXA-66)): 16 µg/mL | MIC ([2]; read-out: Minimum inhibitory concentration (MIC), strain 0284 (TEM-1B, OXA-65, OXA-24)): 32 µg/mL | MIC ([2]; read-out: Minimum inhibitory concentration (MIC), strain 0285 (TEM-1B, OXA-65, OXA-24)): 16 µg/mL | MIC ([2]; read-out: Minimum inhibitory concentration (MIC), strain 0286 (ADC-25, OXA-66, OXA-24)): 16 µg/mL | MIC ([2]; read-out: Minimum inhibitory concentration (MIC), strain 0287 (ADC-25, OXA-66, OXA-72)): 64 µg/mL | MIC ([2]; read-out: Minimum inhibitory concentration (MIC), strain 0288 (ADC-25, OXA-23, OXA-66)): 32 µg/mL | MIC ([2]; read-out: Minimum inhibitory concentration (MIC), strain 0289 (ADC-25, OXA-66, OXA-72)): 16 µg/mL | MIC ([2]; read-out: Minimum inhibitory concentration (MIC), strain 0290 (TEM-1D, ADC-25, OXA-23, OXA-66)): 32 µg/mL | MIC ([2]; read-out: Minimum inhibitory concentration (MIC), strain 0291 (TEM-1D, ADC-25, OXA-23, OXA-66)): 16 µg/mL | MIC ([2]; read-out: Minimum inhibitory concentration (MIC), strain 0292 (OXA-66, OXA-72)): 32 µg/mL | MIC ([2]; read-out: Minimum inhibitory concentration (MIC), strain 0293 (OXA-66, OXA-72)): 16 µg/mL | MIC ([2]; read-out: Minimum inhibitory concentration (MIC), strain 0294 (TEM-1B, OXA-23, OXA-65)): 16 µg/mL | MIC ([2]; read-out: Minimum inhibitory concentration (MIC), strain 0295 (TEM-1D, ADC-25, OXA-23, OXA-66)): 32 µg/mL | MIC ([2]; read-out: Minimum inhibitory concentration (MIC), strain 0296 (ADC-25, OXA-23, OXA-223)): 64 µg/mL | MIC ([2]; read-out: Minimum inhibitory concentration (MIC), strain 0297 (ADC-25, OXA-23, OXA-66)): 8 µg/mL | MIC ([2]; read-out: Minimum inhibitory concentration (MIC), strain 0298 (TEM-1D, ADC-25, OXA-66, OXA-237)): 32 µg/mL | MIC ([2]; read-out: Minimum inhibitory concentration (MIC), strain 0299 (PER-7, OXA-23, OXA-203)): 32 µg/mL | MIC ([2]; read-out: Minimum inhibitory concentration (MIC), strain 0300 (ADC-25, OXA-66)): 2 µg/mL | MIC ([2]; read-out: Minimum inhibitory concentration (MIC), strain 0301 (ADC-25, OXA-66, OXA-72)): 16 µg/mL | MIC ([2]; read-out: Minimum inhibitory concentration (MIC), strain 0302 (OXA-23, OXA-82)): 32 µg/mL | MIC ([2]; read-out: Minimum inhibitory concentration (MIC), strain 0303 (ADC-25, OXA-23, OXA-66)): 8 µg/mL | MIC ([2]; read-out: Minimum inhibitory concentration (MIC), strain 0304 (ADC-25, OXA-66, OXA-72)): 8 µg/mL | MIC ([2]; read-out: Minimum inhibitory concentration (MIC), strain 0305 (TEM-1B, OXA-65, OXA-24)): 8 µg/mL | MIC ([2]; read-out: Minimum inhibitory concentration (MIC), strain 0306 (TEM-1B, OXA-65, OXA-24)): 64 µg/mL | MIC ([2]; read-out: Minimum inhibitory concentration (MIC), strain 0307 (ADC-25, OXA-66, OXA-237)): 4 µg/mL | MIC ([2]; read-out: Minimum inhibitory concentration (MIC), strain 0308 (TEM-1D, ADC-25, OXA-71)): 32 µg/mL | MIC ([2]; read-out: Minimum inhibitory concentration (MIC), strain 0309 (OXA-23, OXA-82)): 8 µg/mL | MIC ([2]; read-out: Minimum inhibitory concentration (MIC), strain 0310 (OXA-23, OXA-82)): 32 µg/mL | MIC ([2]; read-out: Minimum inhibitory concentration (MIC), strain 0311 (ADC-25, OXA-23, OXA-82)): 16 µg/mL | MIC ([2]; read-out: Minimum inhibitory concentration (MIC), strain 0312 (OXA-69)): 4 µg/mL | MIC ([2]; read-out: Minimum inhibitory concentration (MIC), strain 0313 (TEM-1D, OXA-23, OXA-69)): 32 µg/mL | MIC ([2]; read-out: Minimum inhibitory concentration (MIC), strain 157834 (enzyme content ND)): 2 µg/mL | MIC ([2]; read-out: Minimum inhibitory concentration (MIC), strain 157842 (enzyme content ND)): 2 µg/mL | MIC ([2]; read-out: Minimum inhibitory concentration (MIC), strain 157876 (enzyme content ND)): 4 µg/mL | MIC ([2]; read-out: Minimum inhibitory concentration (MIC), strain 157901 (enzyme content ND)): 16 µg/mL | MIC ([2]; read-out: Minimum inhibitory concentration (MIC), strain 161750 (enzyme content ND)): 8 µg/mL | MIC ([2]; read-out: Minimum inhibitory concentration (MIC), strain 161752 (enzyme content ND)): 4 µg/mL | MIC ([2]; read-out: Minimum inhibitory concentration (MIC), strain 161755 (enzyme content ND)): 4 µg/mL | MIC ([2]; read-out: Minimum inhibitory concentration (MIC), strain 161756 (enzyme content ND)): 2 µg/mL | MIC ([2]; read-out: Minimum inhibitory concentration (MIC), strain 161760 (enzyme content ND)): 16 µg/mL | MIC ([2]; read-out: Minimum inhibitory concentration (MIC), strain 161762 (enzyme content ND)): 4 µg/mL
